# “And” between values parts separate entries of the source, which are not always exact repeats. Equal values may be shown once. *1 amine or outer side, *2 acyl side, *3 side chain or, on linkers, in order; H or OH if unused. Where a SMILES comes first, the peptide text is derived from it. [ ]: non-standard residue; d: D form. X1 = C#CCn1cc(C[C@H](N[*:1])C(=O)[*:2])c2ccccc21; NMeLeu(5-OH,4R) = CN[C@@H](C[C@@H](C)CO)C(=O)O; Phe(βR-OMe) = CO[C@H](c1ccccc1)[C@H](N)C(=O)O; Trp(1-Me) = Cn1cc(C[C@H](N)C(=O)O)c2ccccc21; NMeL = CN[C@@H](CC(C)C)C(=O)O; Pra = C#CC[C@H](N)C(=O)O
# System: Mtb (RpoB S450L) ATCC 35838
# Assay type: cell-based, Mycobacterium tuberculosis
row,SMILES,MIC
1,"C#CCn1cc(C[C@@H]2NC(=O)[C@H](C(C)C)NC(=O)[C@H](CC(C)C)N(C)C(=O)[C@H](C(C)C)NC(=O)[C@H]([C@H](OC)c3ccccc3)NC(=O)[C@H](C)NC(=O)[C@H](C[C@@H](C)CO)N(C)C2=O)c2ccccc21 [Compound 5] (cyclo(A[Phe(βR-OMe)]V[NMeL]V[X1][NMeLeu(5-OH,4R)]))",0.4 ± 0.0 µM
2,"C#CC[C@@H]1NC(=O)[C@H](CC(C)C)N(C)C(=O)[C@H](C(C)C)NC(=O)[C@H]([C@H](OC)c2ccccc2)NC(=O)[C@H](C)NC(=O)[C@H](C[C@@H](C)CO)N(C)C(=O)[C@H](Cc2cn(C)c3ccccc23)NC1=O [Compound 10] (cyclo(A[Phe(βR-OMe)]V[NMeL][Pra][Trp(1-Me)][NMeLeu(5-OH,4R)]))",1.6 ± 0.0 µM
3,"CO[C@H]1/C=C/O[C@@]2(C)Oc3c(C)c(O)c4c(O)c(c(/C=N/N5CCN(C)CC5)c(O)c4c3C2=O)NC(=O)/C(C)=C\C=C\[C@H](C)[C@H](O)[C@@H](C)[C@@H](O)[C@@H](C)[C@H](OC(C)=O)[C@@H]1C [Rifampicin, reference compound]",>38.9 µM and >38.88 µM
4,"COc1c(N2C[C@@H]3CCCN[C@@H]3C2)c(F)cc2c(=O)c(C(=O)O)cn(C3CC3)c12 [Moxifloxacin, reference compound]",0.3 ± 0.0 µM and 0.31 µM
5,COC(c1ccccc1)C1NC(=O)C(C)NC(=O)C(CC(C)CO)N(C)C(=O)C(Cc2cn(Cc3cn(CCOCCOCCOCCOCCn4cc(Cn5cc(CC6NC(=O)C(C(C)C)NC(=O)C(CC(C)C)N(C)C(=O)C(C(C)C)NC(=O)C(C(OC)c7ccccc7)NC(=O)C(C)NC(=O)C(CC(C)CO)N(C)C6=O)c6ccccc65)nn4)nn3)c3ccccc23)NC(=O)C(C(C)C)NC(=O)C(CC(C)C)N(C)C(=O)C(C(C)C)NC1=O (stereo not shown) [Compound 8],0.2 ± 0.0 µM
6,NNC(=O)c1ccncc1 [Isoniazid],0.5 ± 0.0 µM and 0.45 µM
7,COC(c1ccccc1)C1NC(=O)C(C)NC(=O)C(CC(C)CO)N(C)C(=O)C(Cc2cn(C)c3ccccc23)NC(=O)C(Cc2cn(CCCCCn3cc(CC4NC(=O)C(CC(C)C)N(C)C(=O)C(C(C)C)NC(=O)C(C(OC)c5ccccc5)NC(=O)C(C)NC(=O)C(CC(C)CO)N(C)C(=O)C(Cc5cn(C)c6ccccc56)NC4=O)nn3)nn2)NC(=O)C(CC(C)C)N(C)C(=O)C(C(C)C)NC1=O (stereo not shown) [Compound 12],0.2 ± 0.0 µM

# Source: publication PMC10914731, “Homo-BacPROTAC-induced degradation of ClpC1 as a strategy against drug-resistant mycobacteria” (Nature Communications, 2024)
